Assay results as given in paper PMC8552062, “Contributions of UDP-Glucuronosyltransferases to Human Hepatic and Intestinal Metabolism of Ticagrelor and Inhibition of UGTs and Cytochrome P450 Enzymes by Ticagrelor and its Glucuronidated Metabolite” (Frontiers in Pharmacology, 2021).

Key:
Type in all cases: in vitro ADME
UGT2B7 = target: T1, UGT2B7 (Homo sapiens, UniProt P16662); test: Ticagrelor glucuronidation by recombinant human UGT2B7; design: purchased BD Gentest; host or cells: baculovirus-infected insect cells; conditions: recombinant human UGT2B7, pH 7.4
T1 sequence (P16662 24-529): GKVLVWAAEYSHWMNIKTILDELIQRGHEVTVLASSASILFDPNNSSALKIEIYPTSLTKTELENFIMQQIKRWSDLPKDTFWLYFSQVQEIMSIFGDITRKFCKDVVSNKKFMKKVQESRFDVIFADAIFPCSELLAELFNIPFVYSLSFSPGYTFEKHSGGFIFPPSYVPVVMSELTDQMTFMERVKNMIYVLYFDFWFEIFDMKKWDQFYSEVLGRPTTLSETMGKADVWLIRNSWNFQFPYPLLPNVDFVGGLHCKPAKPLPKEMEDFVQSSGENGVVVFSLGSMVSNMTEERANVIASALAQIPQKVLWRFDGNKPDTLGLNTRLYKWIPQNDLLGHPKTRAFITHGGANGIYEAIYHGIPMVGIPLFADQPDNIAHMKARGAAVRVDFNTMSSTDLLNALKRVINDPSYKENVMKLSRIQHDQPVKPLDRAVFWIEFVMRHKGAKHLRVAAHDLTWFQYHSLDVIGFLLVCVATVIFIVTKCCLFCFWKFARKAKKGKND
Method: (§1) Ticagrelor glucuronidation was investigated in an in vitro incubation system by using HLM, HIM, and recombinant human UGTs. The incubation system consisted of enzyme sources (HLM, HIM, or human recombinant UGTs), various concentrations of ticagrelor (dissolved in 50% methanol, 1% v/v, 1, 2, 5, 10, 20, 50, 100, 200, 500 μM of final concentration), alamethicin (50 μg/mg protein), 5 mM MgCl2, 100 mM tris-HCL buffer (pH 7.4), and 5 mM UDPGA in a total volume of 100 μl. Alamethicin is a pore-forming polypeptide used to activate UGTs in HLM and HIM ([Fisher et al., 2000]). Preliminary studies were conducted to determine the optimal protein concentrations and incubation times. Linear conditions of ticagrelor-O-Glu formation from ticagrelor, i.e., HLM, 0.2 mg of protein/ml and 60 min, HIM, 0.2 mg of protein/ml and 60 min, and recombinant human UGTs, 0.2 mg of protein/ml and 60 min were selected. The incubation mixture without UDPGA was placed on ice for 15 min to activate UGT by alamethicin. […]
(§2) Kinetic analyses were performed using the mean values of triplicate determinations with either pooled HLM, HIM, or recombinant human UGTs. All data were analyzed by nonlinear regression analysis using the GraphPad Prism 6 (GraphPad Software Inc., CA, United States). […] Intrinsic clearance (CLint) was calculated by dividing Vmax by Km.

UGT1A3 = target: T2, UGT1A3 (Homo sapiens, UniProt P35503); test: Ticagrelor glucuronidation by recombinant human UGT1A3; design: purchased BD Gentest; host or cells: baculovirus-infected insect cells; conditions: recombinant human UGT1A3, pH 7.4
T2 sequence (P35503 29-534): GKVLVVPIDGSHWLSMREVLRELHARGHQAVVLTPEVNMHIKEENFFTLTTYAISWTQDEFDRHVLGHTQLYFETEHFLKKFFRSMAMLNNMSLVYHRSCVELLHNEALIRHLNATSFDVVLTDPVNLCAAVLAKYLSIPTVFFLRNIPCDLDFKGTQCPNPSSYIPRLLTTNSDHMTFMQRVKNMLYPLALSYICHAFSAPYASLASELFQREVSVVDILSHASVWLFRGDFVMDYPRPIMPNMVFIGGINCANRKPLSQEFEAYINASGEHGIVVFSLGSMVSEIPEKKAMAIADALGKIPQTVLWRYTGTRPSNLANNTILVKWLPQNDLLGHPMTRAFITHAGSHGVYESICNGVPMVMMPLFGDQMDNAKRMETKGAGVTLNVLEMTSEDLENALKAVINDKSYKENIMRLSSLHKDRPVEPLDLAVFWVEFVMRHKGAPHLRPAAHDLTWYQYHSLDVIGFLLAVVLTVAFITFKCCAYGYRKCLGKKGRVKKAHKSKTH
Method: as §1, §2

UGT1A1 = target: T3, UGT1A1 (Homo sapiens, UniProt P22309); test: Ticagrelor glucuronidation by recombinant human UGT1A1; design: purchased BD Gentest; host or cells: baculovirus-infected insect cells; conditions: recombinant human UGT1A1, pH 7.4
T3 sequence (P22309 26-533): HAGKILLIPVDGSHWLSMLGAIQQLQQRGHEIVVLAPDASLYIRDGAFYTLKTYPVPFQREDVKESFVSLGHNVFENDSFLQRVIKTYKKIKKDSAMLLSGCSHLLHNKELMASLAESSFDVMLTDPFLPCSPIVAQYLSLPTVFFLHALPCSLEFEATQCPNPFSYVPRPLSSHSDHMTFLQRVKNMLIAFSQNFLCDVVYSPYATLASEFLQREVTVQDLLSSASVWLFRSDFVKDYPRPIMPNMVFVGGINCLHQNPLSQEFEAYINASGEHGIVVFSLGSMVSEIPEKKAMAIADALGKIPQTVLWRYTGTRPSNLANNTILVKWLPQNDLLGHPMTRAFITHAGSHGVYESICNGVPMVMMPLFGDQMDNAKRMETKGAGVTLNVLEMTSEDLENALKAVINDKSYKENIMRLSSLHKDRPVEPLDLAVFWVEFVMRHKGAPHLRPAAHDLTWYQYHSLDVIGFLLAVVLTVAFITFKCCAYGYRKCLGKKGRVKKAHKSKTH
Method: as §1, §2

UGT1A8 = target: T4, UGT1A8 (Homo sapiens, UniProt Q9HAW9); test: Ticagrelor glucuronidation by recombinant human UGT1A8; conditions: recombinant human UGT1A8, pH 7.4
T4 construct: purchased BD Gentest; host or cells: baculovirus-infected insect cells
T4 sequence (Q9HAW9 26-530): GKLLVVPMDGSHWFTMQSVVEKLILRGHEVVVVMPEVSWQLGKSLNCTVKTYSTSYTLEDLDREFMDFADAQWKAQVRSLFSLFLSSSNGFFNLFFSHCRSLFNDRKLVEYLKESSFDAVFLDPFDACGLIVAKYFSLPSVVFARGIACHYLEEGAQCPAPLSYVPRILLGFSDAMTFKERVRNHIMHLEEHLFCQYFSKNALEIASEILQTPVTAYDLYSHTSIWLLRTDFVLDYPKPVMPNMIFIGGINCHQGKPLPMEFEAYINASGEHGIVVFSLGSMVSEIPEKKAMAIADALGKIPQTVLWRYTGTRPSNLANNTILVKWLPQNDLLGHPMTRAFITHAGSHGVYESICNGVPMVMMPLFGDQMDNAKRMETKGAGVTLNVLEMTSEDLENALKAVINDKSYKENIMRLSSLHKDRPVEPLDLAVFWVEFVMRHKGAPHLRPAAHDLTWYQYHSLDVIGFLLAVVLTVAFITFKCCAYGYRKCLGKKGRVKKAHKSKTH
Method: as §1, §2

- microsomal CLint (UGT2B7): 0.02 µL/min/mg
- microsomal CLint (UGT1A3): 0.04 µL/min/mg
- microsomal CLint (UGT1A1): 0.03 µL/min/mg
- microsomal CLint (UGT1A8): 0.01 µL/min/mg
Compound: CCCSc1nc(N[C@@H]2C[C@H]2c2ccc(F)c(F)c2)c2nnn([C@@H]3C[C@H](OCCO)[C@@H](O)[C@H]3O)c2n1 [Ticagrelor]
